Key:
MLLT1 = biological target: T1, MLLT1 (Homo sapiens, UniProt Q03111); experiment: MLLT1 degradation assay in MV4-11 cells (JESS, 24 h); type: cell-based; design: endogenous in cells; host or cells: MV4-11 (ATCC CRL-9591); conditions: vs DMSO control
T1 sequence (Q03111 1-559): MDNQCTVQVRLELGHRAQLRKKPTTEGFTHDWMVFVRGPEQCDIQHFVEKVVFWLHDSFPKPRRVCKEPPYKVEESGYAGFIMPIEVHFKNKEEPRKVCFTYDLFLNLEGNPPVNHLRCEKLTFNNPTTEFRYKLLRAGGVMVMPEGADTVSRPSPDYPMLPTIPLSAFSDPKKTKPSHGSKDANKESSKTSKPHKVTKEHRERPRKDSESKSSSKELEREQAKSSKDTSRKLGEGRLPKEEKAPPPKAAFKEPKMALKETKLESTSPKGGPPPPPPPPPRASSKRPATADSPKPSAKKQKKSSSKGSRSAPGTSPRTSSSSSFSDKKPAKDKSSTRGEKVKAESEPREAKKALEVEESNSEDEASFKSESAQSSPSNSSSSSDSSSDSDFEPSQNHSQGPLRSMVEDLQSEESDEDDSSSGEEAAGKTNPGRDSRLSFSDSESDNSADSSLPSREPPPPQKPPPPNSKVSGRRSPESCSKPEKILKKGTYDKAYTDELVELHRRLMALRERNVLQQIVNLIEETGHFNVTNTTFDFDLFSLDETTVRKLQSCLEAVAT
How it was run: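 MV4-11 cells treated at 1000, 100 and 10 nM (0.1% DMSO) for 24 h at 37° C; lysates (4 ug protein) run on JESS capillary immunoassay with MLLT1 and GAPDH antibodies. Peak areas give % degradation versus DMSO, binned A (≥75%) to D (<25%).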

MV4-11 cells = experiment: MV4-11 cellular proliferative assay, Assay Format B (CTG 2.0, 168 h); type: cell-based; conditions: Homo sapiens, Assay format B, 168 h, read-out: IC50 (MV4-11 cellular proliferative assay)
Protocol: MV4-11 cells at a confluency of ~50-80% was used for cell growth assay. 600 cells/well in a 384-well opaque cell culture plate (6007680; Perkin Elmer) were seeded in 40 μL of complete medium (IMDM+10% FBS+1× Penicillin-Streptomycin). Cells were incubated overnight at 37° C., 5% CO2. 10 mM DMSO stocks were prepared, cells were treated with 10 concentrations of test compounds starting from 1 uM or 100 nM, 3-fold dilution in 10 uL (5× concentration) of complete medium. Final DMSO concentration was 0.3%. Culture plates were centrifuged at 40×g, 30s. Cells were incubated with compounds for 168 h (7 days). After 7 days, 20 uL CTG 2.0 reagent (G9242; Promega) was added per well and luminescence reading was taken in Envision Xcite 2105 multimode plate reader. Data was analyzed in GraphPad Prism 10.0 and data was shown as % viability with respect to DMSO control and dose-response curves were generated using four parameter logistic regression. Assay quality was determined by z-factor calculation using positive and negative controls.

| Compound | MLLT1% Degradation @ 0.01 μM (MLLT1) | MLLT1% Degradation @ 0.1 μM (MLLT1) | MLLT1% Degradation @ 1 μM (MLLT1) | IC50 (MV4-11 cells) [nM] |
| --- | --- | --- | --- | --- |
| Cc1nn(CCCCCCCC#Cc2cccc3c2CN(C2CCC(=O)NC2=O)C3=O)c2cc(C(=O)Nc3cc4[nH]c([C@H]5CCCN5C)c(Cl)c4cn3)ccc12 (stereo partly drawn) [Example 53, N-(3-chloro-2-((R)-1-methylpyrrolidin-2-yl)-1H-pyrrolo[3,2-c]pyridin-6-yl)-1-(9-(2-(2,6-dioxopiperidin-3-yl)-1-oxoisoindolin-4-yl)non-8-yn-1-yl)-3-methyl-1H-indazole-6-carboxamide] | A (Category A: A≥75% degradation) | A (Category A: A≥75% degradation) | A (Category A: A≥75% degradation) | < 100 |
| Cc1nn(CCCCCCCC#Cc2cccc3c2CN([C@H]2CCC(=O)NC2=O)C3=O)c2cc(C(=O)Nc3cc4[nH]c([C@H]5CCCN5C)c(Cl)c4cn3)ccc12 (relative stereo) [Example 100, N-(3-chloro-2-((R)-1-methylpyrrolidin-2-yl)-1H-pyrrolo[3,2-c]pyridin-6-yl)-1-(9-(2-((rel-S)-2,6-dioxopiperidin-3-yl)-1-oxoisoindolin-4-yl)non-8-yn-1-yl)-3-methyl-1H-indazole-6-carboxamide] |  |  |  | < 100 |
| Cc1nn(CCCCCCCC#Cc2ccc(F)c3c2CN(C2CCC(=O)NC2=O)C3=O)c2cc(C(=O)Nc3cc4[nH]c([C@H]5CCCN5C)c(Cl)c4cn3)ccc12 (stereo partly drawn) [Example 67, N-(3-chloro-2-((R)-1-methylpyrrolidin-2-yl)-1H-pyrrolo[3,2-c]pyridin-6-yl)-1-(9-(2-(2,6-dioxopiperidin-3-yl)-7-fluoro-1-oxoisoindolin-4-yl)non-8-yn-1-yl)-3-methyl-1H-indazole-6-carboxamide] | A (Category A: A≥75% degradation) | A (Category A: A≥75% degradation) | A (Category A: A≥75% degradation) | < 100 |
| Cc1nn(CCCCCCCC#Cc2ccc3c(c2)n(C)c(=O)n3C2CCC(=O)NC2=O)c2cc(C(=O)Nc3cc4[nH]c([C@H]5CCCN5C)cc4cn3)ccc12 (stereo partly drawn) [Example 39, 1-(9-(1-(2,6-dioxopiperidin-3-yl)-3-methyl-2-oxo-2,3-dihydro-1H-benzo[d]imidazol-5-yl)non-8-yn-1-yl)-3-methyl-N-(2-((R)-1-methylpyrrolidin-2-yl)-1H-pyrrolo[3,2-c]pyridin-6-yl)-1H-indazole-6-carboxamide] | A (Category A: A≥75% degradation) | A (Category A: A≥75% degradation) | A (Category A: A≥75% degradation) | < 100 |
| Cc1nn(CCCCCCCC#Cc2cccc3c2CN([C@@H]2CCC(=O)NC2=O)C3=O)c2cc(C(=O)Nc3cc4[nH]c([C@H]5CCCN5C)c(Cl)c4cn3)ccc12 (relative stereo) [Example 101, N-(3-chloro-2-((R)-1-methylpyrrolidin-2-yl)-1H-pyrrolo[3,2-c]pyridin-6-yl)-1-(9-(2-((rel-R)-2,6-dioxopiperidin-3-yl)-1-oxoisoindolin-4-yl)non-8-yn-1-yl)-3-methyl-1H-indazole-6-carboxamide] |  |  |  | < 100 |

Other lines, results leading:

| MLLT1% Degradation @ 0.01 μM (MLLT1) | MLLT1% Degradation @ 0.1 μM (MLLT1) | MLLT1% Degradation @ 1 μM (MLLT1) | IC50 (MV4-11 cells) [nM] | Compound |
| --- | --- | --- | --- | --- |
| A (Category A: A≥75% degradation) | A (Category A: A≥75% degradation) | A (Category A: A≥75% degradation) | < 100 | Cc1nn(CCCCCCCC#Cc2cccc3c2CN([C@H]2CCC(=O)NC2=O)C3=O)c2cc(C(=O)Nc3cc4[nH]c([C@H]5CCCN5C)cc4cn3)c(F)cc12 (relative stereo) [Example 102, 1-(9-(2-((rel-S)-2,6-dioxopiperidin-3-yl)-1-oxoisoindolin-4-yl)non-8-yn-1-yl)-5-fluoro-3-methyl-N-(2-((R)-1-methylpyrrolidin-2-yl)-1H-pyrrolo[3,2-c]pyridin-6-yl)-1H-indazole-6-carboxamide] |
| A (Category A: A≥75% degradation) | A (Category A: A≥75% degradation) | A (Category A: A≥75% degradation) | < 100 | Cc1nn(CCCCCC2CCN(c3ccc4c(c3)C(=O)N(C3CCC(=O)NC3=O)C4=O)CC2)c2cc(C(=O)Nc3cc4[nH]c([C@H]5CCCN5C)cc4cn3)ccc12 (stereo partly drawn) [Example 109, 1-(5-(1-(2-(2,6-dioxopiperidin-3-yl)-1,3-dioxoisoindolin-5-yl)piperidin-4-yl)pentyl)-3-methyl-N-(2-((R)-1-methylpyrrolidin-2-yl)-1H-pyrrolo[3,2-c]pyridin-6-yl)-1H-indazole-6-carboxamide] |
| B (Category B: 50%≤B<75% degradation) | A (Category A: A≥75% degradation) | A (Category A: A≥75% degradation) | < 100 | CN1CCC[C@@H]1c1cc2cnc(NC(=O)c3ccc4cnn(CCCCCCCC#Cc5cccc6c5CN(C5CCC(=O)NC5=O)C6=O)c4c3)cc2[nH]1 (stereo partly drawn) [Example 55, 1-(9-(2-(2,6-dioxopiperidin-3-yl)-1-oxoisoindolin-4-yl)non-8-yn-1-yl)-N-(2-((R)-1-methylpyrrolidin-2-yl)-1H-pyrrol[3,2-c]pyridin-6-yl)-1H-indazole-6-carboxamide] |
| B (Category B: 50%≤B<75% degradation) | A (Category A: A≥75% degradation) | A (Category A: A≥75% degradation) | < 100 | Cc1nn(CCCCCC2CCN(c3cccc4c3CN(C3CCC(=O)NC3=O)C4=O)CC2)c2cc(C(=O)Nc3cc4[nH]c([C@H]5CCCN5C)cc4cn3)ccc12 (stereo partly drawn) [Example 105, 1-(5-(1-(2-(2,6-dioxopiperidin-3-yl)-1-oxoisoindolin-4-yl)piperidin-4-yl)pentyl)-3-methyl-N-(2-((R)-1-methylpyrrolidin-2-yl)-1H-pyrrolo[3,2-c]pyridin-6-yl)-1H-indazole-6-carboxamide] |
| A (Category A: A≥75% degradation) | A (Category A: A≥75% degradation) | A (Category A: A≥75% degradation) | < 100 | Cc1nn(CC2CCN(c3cccc4c3CN(C3CCC(=O)NC3=O)C4=O)CC2)c2cc(C(=O)Nc3cc4[nH]c([C@H]5CCCN5C)cc4cn3)ccc12 (stereo in doubt) [Example 107, 1-((1-(2-((rel-S)-2,6-dioxopiperidin-3-yl)-1-oxoisoindolin-4-yl)piperidin-4-yl)methyl)-3-methyl-N-(2-((R)-1-methylpyrrolidin-2-yl)-1H-pyrrolo[3,2-c]pyridin-6-yl)-1H-indazole-6-carboxamide] |
| A (Category A: A≥75% degradation) | A (Category A: A≥75% degradation) | B (Category B: 50%≤B<75% degradation) | < 100 | Cc1nn(CC#Cc2cccc3c2CN(C2CCC(=O)NC2=O)C3=O)c2cc(C(=O)Nc3cc4[nH]c([C@H]5CCCN5C)cc4cn3)ccc12 (stereo partly drawn) [Example 72, 1-(3-(2-(2,6-dioxopiperidin-3-yl)-1-oxoisoindolin-4-yl)prop-2-yn-1-yl)-3-methyl-N-(2-((R)-1-methylpyrrolidin-2-yl)-1H-pyrrolo[3,2-c]pyridin-6-yl)-1H-indazole-6-carboxamide] |
| B (Category B: 50%≤B<75% degradation) | A (Category A: A≥75% degradation) | A (Category A: A≥75% degradation) | < 100 | Cc1nn(C2CCN(CC3CCN(c4cccc5c4C(=O)N(C4CCC(=O)NC4=O)C5=O)CC3)CC2)c2cc(C(=O)Nc3cc4[nH]c([C@H]5CCCN5C)cc4cn3)ccc12 (stereo partly drawn) [Example 71, 1-(1-((1-(2-(2,6-dioxopiperidin-3-yl)-1,3-dioxoisoindolin-4-yl)piperidin-4-yl)methyl)piperidin-4-yl)-3-methyl-N-(2-((R)-1-methylpyrrolidin-2-yl)-1H-pyrrolo[3,2-c]pyridin-6-yl)-1H-indazole-6-carboxamide] |
